{"source": "patent US10975013B2", "about": "“Method for producing vanillin” (T. HASEGAWA CO., LTD., priority 2018, dated 2021)", "format_in_all_cases": "physicochemical", "key": {"[1]": {"test": "Solubility of vanillin in solvent-heptane mixed solvents (1:1) at 25° C."}, "[2]": {"test": "Solubility of vanillin in dibutyl maleate-solvent mixed solvents (1:1) at 25° C."}, "[3]": {"test": "Solubility of vanillin in various solvents at 25° C."}}}
{"compound": "COc1cc(C=O)ccc1O", "note": "[vanillin]", "values": [{"measurement": "Solubility (mass %) of vanillin in solvent-heptane mixed solvent (1:1) at 25° C.", "setting": "[1]; Benzyl benzoate-heptane (1:1)", "result": 1.2, "unit": "% mass %"}, {"measurement": "Solubility (mass %) of vanillin in solvent-heptane mixed solvent (1:1) at 25° C.", "setting": "[1]; Dibenzyl ether-heptane (1:1)", "result": 0.9, "unit": "% mass %"}, {"measurement": "Solubility (mass %) of vanillin in solvent-heptane mixed solvent (1:1) at 25° C.", "setting": "[1]; Dibutyl adipate-heptane (1:1)", "result": 1.4, "unit": "% mass %"}, {"measurement": "Solubility (mass %) of vanillin in solvent-heptane mixed solvent (1:1) at 25° C.", "setting": "[1]; Dibutyl fumarate-heptane (1:1)", "result": 1.0, "unit": "% mass %"}, {"measurement": "Solubility (mass %) of vanillin in solvent-heptane mixed solvent (1:1) at 25° C.", "setting": "[1]; Dibutyl succinate-heptane (1:1)", "result": 1.7, "unit": "% mass %"}, {"measurement": "Solubility (mass %) of vanillin in solvent-heptane mixed solvent (1:1) at 25° C.", "setting": "[1]; Diethyl phthalate-heptane (1:1)", "result": "Oiling out"}, {"measurement": "Solubility (mass %) of vanillin in solvent-heptane mixed solvent (1:1) at 25° C.", "setting": "[1]; Diethyl sebacate-heptane (1:1)", "result": 1.6, "unit": "% mass %"}, {"measurement": "Solubility (mass %) of vanillin in solvent-heptane mixed solvent (1:1) at 25° C.", "setting": "[1]; Diisobutyl adipate-heptane (1:1)", "result": 1.4, "unit": "% mass %"}, {"measurement": "Solubility (mass %) of vanillin in solvent-heptane mixed solvent (1:1) at 25° C.", "setting": "[1]; Ethyl laurate-heptane (1:1)", "result": 0.6, "unit": "% mass %"}, {"measurement": "Solubility (mass %) of vanillin in solvent-heptane mixed solvent (1:1) at 25° C.", "setting": "[1]; Isopropyl myristate-heptane (1:1)", "result": 0.3, "unit": "% mass %"}, {"measurement": "Solubility (mass %) of vanillin in solvent-heptane mixed solvent (1:1) at 25° C.", "setting": "[1]; Tetraglyme-heptane (1:1)", "result": "Oiling out"}, {"measurement": "Solubility (mass %) of vanillin in solvent-heptane mixed solvent (1:1) at 25° C.", "setting": "[1]; Tripropionin-heptane (1:1)", "result": "Oiling out"}, {"measurement": "Solubility (mass %) of vanillin in solvent-heptane mixed solvent (1:1) at 25° C.", "setting": "[1]; dibutyl maleate-Heptane (1:1)", "result": 1.7, "unit": "% mass %"}, {"measurement": "Solubility (mass %) of vanillin in solvent-heptane mixed solvent (1:1) at 25° C.", "setting": "[1]; γ-Undecalactone-heptane (1:1)", "result": 3.6, "unit": "% mass %"}, {"measurement": "Solubility (mass %) of vanillin in solvent-heptane mixed solvent (1:1) at 25° C.", "setting": "[1]; δ-Decalactone-heptane (1:1)", "result": "Oiling out"}, {"measurement": "Solubility (mass %) of vanillin in dibutyl maleate-solvent mixed solvent (1:1) at 25° C.", "setting": "[2]; dibutyl maleate-Cyclohexane (1:1)", "result": 2.1, "unit": "% mass %"}, {"measurement": "Solubility (mass %) of vanillin in dibutyl maleate-solvent mixed solvent (1:1) at 25° C.", "setting": "[2]; dibutyl maleate-Heptane (1:1)", "result": 1.7, "unit": "% mass %"}, {"measurement": "Solubility (mass %) of vanillin in dibutyl maleate-solvent mixed solvent (1:1) at 25° C.", "setting": "[2]; dibutyl maleate-Hexane (1:1)", "result": 1.7, "unit": "% mass %"}, {"measurement": "Solubility (mass %) of vanillin in dibutyl maleate-solvent mixed solvent (1:1) at 25° C.", "setting": "[2]; dibutyl maleate-Isooctane (1:1)", "result": 1.8, "unit": "% mass %"}, {"measurement": "Solubility (mass %) of vanillin in dibutyl maleate-solvent mixed solvent (1:1) at 25° C.", "setting": "[2]; dibutyl maleate-Petroleum ether (1:1)", "result": 1.6, "unit": "% mass %"}, {"measurement": "Solubility (mass %) of vanillin in dibutyl maleate-solvent mixed solvent (1:1) at 25° C.", "setting": "[2]; dibutyl maleate-Toluene (1:1)", "result": 5.5, "unit": "% mass %"}, {"measurement": "Solubility (mass %) of vanillin at 25° C.", "setting": "[3]; solvent 1-Chlorotetradecane", "result": 0.4, "unit": "% mass %"}, {"measurement": "Solubility (mass %) of vanillin at 25° C.", "setting": "[3]; solvent Benzyl benzoate", "result": 6.6, "unit": "% mass %"}, {"measurement": "Solubility (mass %) of vanillin at 25° C.", "setting": "[3]; solvent Dibenzyl ether", "result": 5.5, "unit": "% mass %"}, {"measurement": "Solubility (mass %) of vanillin at 25° C.", "setting": "[3]; solvent Dibutyl adipate", "result": 10.9, "unit": "% mass %"}, {"measurement": "Solubility (mass %) of vanillin at 25° C.", "setting": "[3]; solvent Dibutyl fumarate", "result": 9.2, "unit": "% mass %"}, {"measurement": "Solubility (mass %) of vanillin at 25° C.", "setting": "[3]; solvent Dibutyl maleate", "result": 11.3, "unit": "% mass %"}, {"measurement": "Solubility (mass %) of vanillin at 25° C.", "setting": "[3]; solvent Dibutyl succinate", "result": 15.4, "unit": "% mass %"}, {"measurement": "Solubility (mass %) of vanillin at 25° C.", "setting": "[3]; solvent Diethyl phthalate", "result": 14.8, "unit": "% mass %"}, {"measurement": "Solubility (mass %) of vanillin at 25° C.", "setting": "[3]; solvent Diethyl sebacate", "result": 13.6, "unit": "% mass %"}, {"measurement": "Solubility (mass %) of vanillin at 25° C.", "setting": "[3]; solvent Diisobutyl adipate", "result": 7.7, "unit": "% mass %"}, {"measurement": "Solubility (mass %) of vanillin at 25° C.", "setting": "[3]; solvent Ethyl laurate", "result": 3.1, "unit": "% mass %"}, {"measurement": "Solubility (mass %) of vanillin at 25° C.", "setting": "[3]; solvent Isopropyl myristate", "result": 2.0, "unit": "% mass %"}, {"measurement": "Solubility (mass %) of vanillin at 25° C.", "setting": "[3]; solvent Tetraglyme", "result": 31.3, "unit": "% mass %"}, {"measurement": "Solubility (mass %) of vanillin at 25° C.", "setting": "[3]; solvent Tripropionin", "result": 18.1, "unit": "% mass %"}, {"measurement": "Solubility (mass %) of vanillin at 25° C.", "setting": "[3]; solvent n-Pentadecane", "result": 0.05, "unit": "% mass %"}, {"measurement": "Solubility (mass %) of vanillin at 25° C.", "setting": "[3]; solvent γ-Undecalactone", "result": 16.2, "unit": "% mass %"}, {"measurement": "Solubility (mass %) of vanillin at 25° C.", "setting": "[3]; solvent δ-Decalactone", "result": 17.4, "unit": "% mass %"}]}
